# PMC9655118, “Identification of Novel Cyanopyridones and Pyrido[2,3-d]pyrimidines as Anticancer Agents with Dual VEGFR-2/HER-2 Inhibitory Action: Synthesis, Biological Evaluation and Molecular Docking Studies” (Pharmaceuticals, 2022)
# “And” between values parts separate entries of the source, which are not always exact repeats. Equal entries are not always repeated.
# Columns and labels:
# HepG2 cell line = test: MTT cytotoxicity assay, HepG2; type: cell-based; details: Homo sapiens, 48 h, mean ± S.D. of three experiments, 50% growth inhibition
# Experimental: (§1) The MTT colorimetric assay is a very sensitive method used to measure the potential cytotoxicity (loss of viable cells) of targeted compounds. […] The drug taxol was used as the reference standard. Cell morphological changes were recorded to determine the cytotoxic effect, and the results are found in Table 1, Figure 3.
# (§2) In vitro testing was performed on HepG2 and MCF-7 cell lines to determine the antitumor activity of the newly synthesized chemical compounds. Both cell lines originally came from Egypt’s National Cancer Institute (NCI), housed at Cairo University. At 37 °C with 5% […], the cells were grown in RPMI 1640 containing 10% fetal bovine serum, 50 micrograms per milliliter of streptomycin, and 100 international units per milliliter of penicillin. After trypsinization with 0.05% trypsin-EDTA, cell growth and morphology were evaluated, and passages were made when cells reached 80–90% confluence.
# (§3) The MTT assay protocol is described in the Supplementary Materials.
# (§4) The MTT assay was used to determine the effects of the newly synthesized compounds on cell viability. In a nutshell, 1 × 10^4 cells/well were seeded in a 96-well plate and allowed to grow for 24 hours. After 24 hours, the original medium was discarded, and a new compounds-containing medium was added. After 48 hours, the media was changed out and 100 μL of MTT (10 μL from (MTT) stock solution (5 mg/ml in PBS) in 100 μL media) was added to each well, and the plates were incubated at 37° C for 4 hours. After adding 100 μL of acidified isopropanol to each well, the formed formazan crystals were dissolved, and the absorbance was read at 570 nm using an ELISA microplate reader (Epoc-2C micro-plate reader, Bio Tek, VT, USA). There were three separate runs of every experiment. Half-maximal inhibitory concentrations (IC50) were determined by fitting sigmoidal dose-response curves.
# (§5) GraphPad Prism 8.0 (San Diego, CA, USA) analyzed all results. All results (three independent experiments) were shown as means ± standard deviation. The significance of the differences in the outcomes of all groups was examined using ANOVA and Tukey’s
# MCF-7 cell line = test: MTT cytotoxicity assay, MCF-7; type: cell-based; details: Homo sapiens, MCF7, 48 h, mean ± S.D. of three experiments, 50% growth inhibition
# Experimental: as §1, §2, §3, §4, §5
# VEGFR-2 [1] = molecular target: T1, VEGFR-2 (Homo sapiens, UniProt P35968); test: In vitro VEGFR-2 inhibition assay; type: biochemical; details: mean of three replicates ± S.D.
# T1 construct: Effects of compounds 5e and 5a on VEGFR-2 and HER2 (µM) in MCF-7 cells compared to control; endogenous in cells; host or cells: MCF-7
# Experimental: (§6) Assessment was performed using a VEGFR-2 (human) SimpleStep ELISA kit (ab213476) and HER-2 (human) SimpleStep ELISA kit (ab100510) (abcam® Cambridge, CB2 0AX, Cambridge, UK) according to manufacturer instructions. In brief, tissue culture supernatant was added to the anti-tag antibody-coated wells, followed by the secondary antibody mix. To remove unbound material, the wells were washed after incubation. […] The final step in the transformation from blue to yellow was the addition of a stop solution, which halted the reaction. The intensity of the signal generated at 450 nm was proportional to the amount of bound analyte.
# VEGFR-2 [2] = test: VEGFR-2 expression level in MCF-7 cells (ELISA); type: cell-based, human; details: untreated control 1573.00 ± 36.9
# Experimental: (§7) In this study, we further explored the impact of cyanopyridones 5a and 5e on VEGFR-2 and HER-2 expression levels in MCF-7 cells (Figure 5). The results disclosed that both 5a and 5e had interesting profiles for reduction of VEGFR-2/HER-2 expression levels compared to the control cells and the reference drug taxol.
# as §6
# HER-2 [3] = molecular target: T2, HER-2 (Homo sapiens, UniProt P04626); test: In vitro HER-2 inhibition assay; type: biochemical; details: mean of three replicates ± S.D.
# T2 construct: Effects of compounds 5e and 5a on VEGFR-2 and HER2 (µM) in MCF-7 cells compared to control; endogenous in cells; host or cells: MCF-7
# Experimental: as §6
# HER-2 [4] = test: HER-2 expression level in MCF-7 cells (ELISA); type: cell-based, human; details: untreated control 559.00 ± 33.9
# Experimental: as §7, §6
# HER-2 [5] = test system: HER-2; design: method as in doi:10.1039/C5MD00602C; details: reported by Pfizer; cited from earlier work
# MCF-7 breast cancer = test system: MCF-7 breast cancer; design: method as in PMID 26729087; details: cited from earlier work
# SF-268 CNS cancer = test system: SF-268 CNS cancer; design: method as in PMID 26729087; details: cited from earlier work
# [6] = test system: NCI-H460 non-small cell lung cancer; design: method as in PMID 26729087; details: cited from earlier work
# T2 sequence (P04626 23-1255): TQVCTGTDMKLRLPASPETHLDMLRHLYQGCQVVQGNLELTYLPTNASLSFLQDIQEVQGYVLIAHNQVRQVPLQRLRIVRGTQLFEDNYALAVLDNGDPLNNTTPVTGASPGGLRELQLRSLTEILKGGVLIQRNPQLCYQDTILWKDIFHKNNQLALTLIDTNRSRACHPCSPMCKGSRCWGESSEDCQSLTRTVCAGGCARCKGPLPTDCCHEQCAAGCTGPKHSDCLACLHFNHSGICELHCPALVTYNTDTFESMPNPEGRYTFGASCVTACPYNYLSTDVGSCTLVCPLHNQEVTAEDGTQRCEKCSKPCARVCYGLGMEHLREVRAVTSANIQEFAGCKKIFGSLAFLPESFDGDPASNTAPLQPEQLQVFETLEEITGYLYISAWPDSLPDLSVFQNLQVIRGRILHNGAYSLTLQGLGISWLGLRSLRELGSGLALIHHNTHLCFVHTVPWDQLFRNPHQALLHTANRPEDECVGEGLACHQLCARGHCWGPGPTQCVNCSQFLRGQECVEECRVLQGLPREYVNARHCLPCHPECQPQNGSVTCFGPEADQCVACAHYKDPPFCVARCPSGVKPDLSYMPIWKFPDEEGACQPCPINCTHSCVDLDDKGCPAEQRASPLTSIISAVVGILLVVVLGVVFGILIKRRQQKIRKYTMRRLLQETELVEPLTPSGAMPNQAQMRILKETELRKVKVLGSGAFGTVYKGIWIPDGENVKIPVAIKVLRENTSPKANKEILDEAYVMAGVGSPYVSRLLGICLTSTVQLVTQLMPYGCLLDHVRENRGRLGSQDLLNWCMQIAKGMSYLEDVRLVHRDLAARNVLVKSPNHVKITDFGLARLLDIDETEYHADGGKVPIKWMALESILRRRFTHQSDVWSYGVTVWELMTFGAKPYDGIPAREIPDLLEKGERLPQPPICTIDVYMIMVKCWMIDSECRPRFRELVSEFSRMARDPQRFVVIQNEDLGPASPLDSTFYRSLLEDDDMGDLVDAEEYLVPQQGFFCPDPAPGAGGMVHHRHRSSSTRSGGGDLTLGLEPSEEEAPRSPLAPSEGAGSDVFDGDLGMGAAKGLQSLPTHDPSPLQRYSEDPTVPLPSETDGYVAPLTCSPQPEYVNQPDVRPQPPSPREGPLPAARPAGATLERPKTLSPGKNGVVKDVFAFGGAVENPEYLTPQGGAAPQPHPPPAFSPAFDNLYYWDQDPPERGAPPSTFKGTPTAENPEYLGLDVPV
# T1 sequence (P35968 20-1356): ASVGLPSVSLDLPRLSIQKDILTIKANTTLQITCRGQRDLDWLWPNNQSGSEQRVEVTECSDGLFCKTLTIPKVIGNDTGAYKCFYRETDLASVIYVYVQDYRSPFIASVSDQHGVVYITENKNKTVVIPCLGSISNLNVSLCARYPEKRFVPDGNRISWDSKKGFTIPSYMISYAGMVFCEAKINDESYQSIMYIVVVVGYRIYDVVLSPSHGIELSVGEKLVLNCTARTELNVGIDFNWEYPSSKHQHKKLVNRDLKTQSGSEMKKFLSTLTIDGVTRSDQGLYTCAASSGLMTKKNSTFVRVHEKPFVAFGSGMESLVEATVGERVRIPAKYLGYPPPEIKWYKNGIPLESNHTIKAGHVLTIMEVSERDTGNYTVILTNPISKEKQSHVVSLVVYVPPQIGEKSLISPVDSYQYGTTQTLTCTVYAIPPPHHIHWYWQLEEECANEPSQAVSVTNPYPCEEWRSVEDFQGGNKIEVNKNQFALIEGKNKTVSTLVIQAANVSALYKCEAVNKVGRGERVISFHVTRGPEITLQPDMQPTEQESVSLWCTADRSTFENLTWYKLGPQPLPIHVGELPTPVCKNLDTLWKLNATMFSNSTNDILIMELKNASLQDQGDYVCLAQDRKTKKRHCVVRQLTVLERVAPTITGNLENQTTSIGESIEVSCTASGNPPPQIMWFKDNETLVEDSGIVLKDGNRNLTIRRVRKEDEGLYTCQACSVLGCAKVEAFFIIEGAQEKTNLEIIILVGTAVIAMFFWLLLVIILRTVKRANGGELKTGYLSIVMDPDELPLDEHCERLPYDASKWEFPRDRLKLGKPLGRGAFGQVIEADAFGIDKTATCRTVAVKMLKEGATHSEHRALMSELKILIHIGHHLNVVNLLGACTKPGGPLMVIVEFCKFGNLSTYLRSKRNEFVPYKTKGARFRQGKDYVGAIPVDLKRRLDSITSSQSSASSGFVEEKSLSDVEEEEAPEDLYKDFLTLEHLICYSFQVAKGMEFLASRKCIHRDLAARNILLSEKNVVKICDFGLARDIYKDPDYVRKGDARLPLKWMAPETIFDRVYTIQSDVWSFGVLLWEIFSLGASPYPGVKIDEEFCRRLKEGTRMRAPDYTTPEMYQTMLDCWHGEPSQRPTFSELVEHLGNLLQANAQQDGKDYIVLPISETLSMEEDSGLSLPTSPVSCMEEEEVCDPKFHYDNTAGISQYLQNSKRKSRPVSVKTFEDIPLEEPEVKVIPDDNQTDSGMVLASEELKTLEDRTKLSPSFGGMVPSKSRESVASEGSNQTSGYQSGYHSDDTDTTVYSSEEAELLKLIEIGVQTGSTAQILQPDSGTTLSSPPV
melting point [°C],SMILES,IC50 (HepG2 cell line) [µM],IC50 (MCF-7 cell line) [µM],other results
330 to 332,N#Cc1c(-c2ccc(O)cc2)c(C#N)c(=O)n(-c2cccc(C(F)(F)F)c2)c1N [Compound 5b],11.4 ± 0.61,24.7 ± 1.33,
308 to 310,Cc1nc2c(c(-c3ccccc3)c(C#N)c(=O)n2-c2cccc(C(F)(F)F)c2)c(=O)[nH]1 [Compound 7a],16.3 ± 0.88,10.7 ± 0.58,
330 to 332,Cc1nc2c(c(-c3ccc(Cl)cc3)c(C#N)c(=O)n2-c2cccc(C(F)(F)F)c2)c(=O)[nH]1 [Compound 7b],19.6 ± 1.06,6.22 ± 0.34,
324 to 326,N#Cc1c(-c2ccc(Cl)cc2)c(C#N)c(=O)n(-c2cccc(C(F)(F)F)c2)c1N [Compound 5d],22.5 ± 1.22,13.7 ± 0.74,
239 to 241,N#Cc1c(-c2ccc(Cl)cc2Cl)c(C#N)c(=O)n(-c2cccc(C(F)(F)F)c2)c1N [Compound 5e],10.7 ± 0.58,1.39 ± 0.08,IC50 (VEGFR-2 [1]): 0.124 ± 0.011 µM; VEGFR-2 (pg/mL) expression level (VEGFR-2 [2]): 510.00 pg/mL and 510.00 ± 20.2 pg/mL; IC50 (HER-2 [3]): 0.077 ± 0.003 µM; HER-2 (pg/mL) expression level (HER-2 [4]): 148.60 pg/mL and 148.60 ± 5.5 pg/mL
,COC(=O)NCC#Cc1ccc2ncnc(Nc3ccc(Oc4cccc(C)n4)c(C)c3)c2c1 [V],,,anti-HER-2 activity (HER-2 [5]): lower than 42 nM
333 to 335,Cc1nc2c(c(-c3ccc(Cl)cc3Cl)c(C#N)c(=O)n2-c2cccc(C(F)(F)F)c2)c(=O)[nH]1 [Compound 7c],5.04 ± 0.27,9.28 ± 0.5,
150 to 152,COc1cc(-c2c(C#N)c(=O)n(-c3cccc(C(F)(F)F)c3)c3nc(C)[nH]c(=O)c23)cc(OC)c1OC [Compound 7e],71.9 ± 3.88,27.8 ± 1.5,
320 to 322,CC(=O)Oc1ccc(-c2c(C#N)c(=O)n(-c3cccc(C(F)(F)F)c3)c3nc(C)[nH]c(=O)c23)cc1 [Compound 7d],52.5 ± 2.84,43.4 ± 2.35,
195 to 197,COc1cc(-c2c(C#N)c(N)n(-c3cccc(C(F)(F)F)c3)c(=O)c2C#N)cc(OC)c1OC [Compound 5f],40.6 ± 2.19,54.2 ± 2.93,
350 to 352,N#Cc1c(-c2ccc(Cl)cc2)c2c(=O)[nH]cnc2n(-c2cccc(C(F)(F)F)c2)c1=O [Compound 6b],2.68 ± 0.14,14 ± 0.76,
,"CC(=O)O[C@H]1C(=O)[C@@]2(C)[C@H]([C@H](OC(=O)c3ccccc3)[C@]3(O)C[C@H](OC(=O)[C@H](O)[C@@H](NC(=O)c4ccccc4)c4ccccc4)C(C)=C1C3(C)C)[C@]1(OC(C)=O)CO[C@@H]1C[C@@H]2O [Taxol, paclitaxel, reference compound]",14.6 ± 0.79,8.48 ± 0.46,VEGFR-2 (pg/mL) expression level (VEGFR-2 [2]): 660.10 ± 31.4 pg/mL; HER-2 (pg/mL) expression level (HER-2 [4]): 199.10 ± 8.6 pg/mL
300 to 302,N#Cc1c(-c2ccc(O)cc2)c2c(=O)[nH]cnc2n(-c2cccc(C(F)(F)F)c2)c1=O [Compound 6a],7.27 ± 0.39,,
229 to 230,N#Cc1c(-c2ccc([N+](=O)[O-])cc2)c(C#N)c(=O)n(-c2cccc(C(F)(F)F)c2)c1N [Compound 5c],4.01 ± 0.22,20.2 ± 1.09,
280 to 282,N#Cc1c(-c2ccccc2)c(C#N)c(=O)n(-c2cccc(C(F)(F)F)c2)c1N [Compound 5a],2.71 ± 0.15,1.77 ± 0.1,IC50 (VEGFR-2 [1]): 0.217 ± 0.02 µM; VEGFR-2 (pg/mL) expression level (VEGFR-2 [2]): 884.30 pg/mL and 884.30 ± 29.3 pg/mL; IC50 (HER-2 [3]): 0.168 ± 0.009 µM; HER-2 (pg/mL) expression level (HER-2 [4]): 299.50 pg/mL and 299.50 ± 4.7 pg/mL
,CCC(=O)COc1nc(-c2cc(Cl)ccc2Cl)cc(-c2ccc(F)cc2)c1C#N [III],,,"IC50 cell growth inhibition, MCF-7 (MCF-7 breast cancer): 0.02 µg/mL; IC50 cell growth inhibition, SF-268 (SF-268 CNS cancer): 0.02 µg/mL; IC50 cell growth inhibition, NCI-H460 [6]: 0.01 µg/mL"
